From patent US12577248B2, “Substituted [1,2,4]triazolo[1,5-a]pyrazines as spleen tyrosine kinase inhibitors” (NANJING RUIJIE PHARMA CO., LTD., priority 2020, dated 2026)
pIC50: −log10 of the molar value.

These compounds were tested against SYK kinase (Homo sapiens, UniProt P43405) (assay: SYK kinase assay (HTRF KinEASE-TK)). Details: class symbols, read-out: Syk inhibition IC50.
Format: biochemical
Description: A homogeneous time-resolved fluorescence (HTRF) assay was performed to assess the potential inhibitory effect of compounds on SYK kinase. The HTRF KinEASE-TK kit (Cisbio) was used. During the step, kinase will phosphorylate the substrate, and the resulting fluorescence signal is proportional to the phosphorylation level. The assay was performed in the following steps: First, the testing compounds were diluted 1:3 in succession in DMSO. The 1× kinase buffer contained 1 volume of 5× enzymatic buffer with 4 volumes of distilled water, 5 mM MgCl2, 1 mM MnCl2, and 1 mM DTT. The assays were assembled in 384 well plates (784075, Greiner) where 10 nl of compound solutions were added into each well, and the plates were centrifuged at 1000 g for 1 min. Then, 5 μl of 2×SYK in 1× kinase buffer were added to each well. The plates were centrifuged at 1000 g for 30 s and then incubated at room temperature for 10 min. The reaction was initiated by adding […] of premixed 2×TK-substrate-biotin and ATP mixture in 1× kinase buffer to the assay plates. The plates were centrifuged at 1000 g for 30 s and incubated at room temperature for 30 min. Phosphorylation was detected by adding 5 μl of 4×Sa-XL 665 in HTRF detection buffer into each well of the assay plates. The plates were centrifuged plates at 1000 g for 30 sec, and then incubated at room temperature for 1 h. Finally, the plates were read on an Envision 2104 plate reader (PerkinElmer) and the fluorescence signal was measured at 615 nm (Cryptate) and 665 nm (XL665).
A ratio (665/615 nm) was calculated for each well. The inhibition ratio was calculated as follow: […]
IC50 was calculated by fitting % Inhibition values and log of compound concentrations to nonlinear regression (dose response−variable slope) with GraphPad 6.0.

Q: How did the pIC50 turn out when `c1nc2c(Nc3ccc(N4CCC5(COC5)C4)cc3)nc(-c3ccc4cn[nH]c4c3)cn2n1` [I63, N-(4-(2-oxa-6-azaspiro[3.4]octan-6-yl)phenyl)-6-(1H-indazol-6-yl)-[1,2,4]triazolo[1,5-a]pyrazin-8-amine] was run?
A: The pIC50 was less than 5.30.

Q: How did the pIC50 turn out when `CC1(C)Oc2cc(-c3cn4ncnc4c(Nc4ccc5c(c4)OC(F)(F)O5)n3)cnc2NC1=O` [I39, 7-(8-((2,2-difluorobenzo[d][1,3]dioxol-5-yl)amino)-[1,2,4]triazolo[1,5-a]pyrazin-6-yl)-2,2-dimethyl-2H-pyrido[3,2-b][1,4]oxazin-3(4H)-one] was run?
A: Its pIC50 is less than 5.30.

Q: `COc1cc(Nc2nc(-c3ccc4c(F)n[nH]c4c3)cn3cnnc23)ccc1N1CCOCC1` [I44, 6-(3-fluoro-1H-indazol-6-yl)-N-(3-methoxy-4-morpholinophenyl)-[1,2,4]triazolo[4,3-a]pyrazin-8-amine] was tested. Which pIC50 did it give?
A: The pIC50 was less than 5.30.

Q: With `COc1cc(Nc2nc(-c3cnc4c(c3)OC(C)(C)C(=O)N4)cn3ncnc23)ccc1N1CCOCC1` [I32, 7-(8-((3-methoxy-4-morpholinophenyl)amino)-[1,2,4]triazolo[1,5-a]pyrazin-6-yl)-2,2-dimethyl-2H-pyrido[3,2-b][1,4]oxazin-3(4H)-one] as the compound, how does the pIC50 read?
A: The pIC50 was 6.30 to 7.30.

Q: How did the pIC50 turn out when `NC(=O)c1cccc(-c2cn3ncnc3c(Nc3ccc(N4CCOCC4)cc3)n2)c1` [I6, 3-(8-((4-morpholinophenyl)amino)-[1,2,4]triazolo[1,5-a]pyrazin-6-yl)benzamide] was run?
A: The pIC50 was 6.30 to 7.30.

Q: With `O=C1COc2cc(-c3cn4ncnc4c(Nc4ccc(N5CCOCC5)cc4)n3)cnc2N1` [I31, 7-(8-((4-morpholinophenyl)amino)-[1,2,4]triazolo[1,5-a]pyrazin-6-yl)-2H-pyrido[3,2-b][1,4]oxazin-3(4H)-one] as the compound, how does the pIC50 read?
A: The pIC50 was 6.30 to 7.30.

Q: How did the pIC50 turn out when `CC(C)N1C[C@@H]2C[C@@H]1CN2c1ccc(Nc2nc(-c3ccc4cn[nH]c4c3)cn3ncnc23)cc1` [I71, 6-(1H-indazol-6-yl)-N-(4-((1S,4R)-5-isopropyl-2,5-diazabicyclo[2.2.1]heptan-2-yl)phenyl)-[1,2,4]triazolo[1,5-a]pyrazin-8-amine] was run?
A: Its pIC50 is 6.30 to 7.30.

Q: How did the pIC50 turn out when `COc1ccc(Nc2nc(-c3cnc4c(c3)OCC(=O)N4)cn3ncnc23)cc1OC` [I36, 7-(8-((3,4-dimethoxyphenyl)amino)-[1,2,4]triazolo[1,5-a]pyrazin-6-yl)-2H-pyrido[3,2-b][1,4]oxazin-3(4H)-one] was run?
A: The pIC50 was 6.30 to 7.30.

Q: `COc1cc(Nc2nc(-c3ccc4cn[nH]c4c3)cn3ncnc23)ccc1N1CCN(CC(F)(F)F)CC1` [I8, 6-(1H-indazol-6-yl)-N-(3-methoxy-4-(4-(2,2,2-trifluoroethyl)piperazin-1-yl)phenyl)-[1,2,4]triazolo[1,5-a]pyrazin-8-amine] was tested. Which pIC50 did it give?
A: The pIC50 was no less than 7.30.

Q: With `COc1cc(Nc2nc(-c3ccc4cn[nH]c4c3)cn3ncnc23)ccc1N1CCN(C2CC2)CC1` [I19, N-(4-(4-cyclopropylpiperazin-1-yl)-3-methoxyphenyl)-6-(1H-indazol-6-yl)-[1,2,4]triazolo[1,5-a]pyrazin-8-amine] as the compound, how does the pIC50 read?
A: The pIC50 was no less than 7.30.

Q: With `c1nc2c(Nc3ccc(N4CCOCC4)c(OC4CC4)c3)nc(-c3ccc4cn[nH]c4c3)cn2n1` [I74, N-(3-cyclopropoxy-4-morpholinophenyl)-6-(1H-indazol-6-yl)-[1,2,4]triazolo[1,5-a]pyrazin-8-amine] as the compound, how does the pIC50 read?
A: Its pIC50 is 6.30 to 7.30.

Q: `COc1ccc(Nc2nc(-c3cnc4c(c3)OC(C)(C)C(=O)N4)cn3ncnc23)cc1OC` [I37, 7-(8-((3,4-dimethoxyphenyl)amino)-[1,2,4]triazolo[1,5-a]pyrazin-6-yl)-2,2-dimethyl-2H-pyrido[3,2-b][1,4]oxazin-3(4H)-one] was tested. Which pIC50 did it give?
A: Its pIC50 is 6.30 to 7.30.

Q: How did the pIC50 turn out when `NC(=O)c1ccc(-c2cn3ncnc3c(Nc3ccc(N4CCOCC4)cc3)n2)cc1` [I5, 4-(8-((4-morpholinophenyl)amino)-[1,2,4]triazolo[1,5-a]pyrazin-6-yl)benzamide] was run?
A: The pIC50 was 6.30 to 7.30.

Q: With `Fc1n[nH]c2cc(-c3cn4cnnc4c(Nc4ccc(N5CCOCC5)cc4)n3)ccc12` [I45, 6-(3-fluoro-1H-indazol-6-yl)-N-(4-morpholinophenyl)-[1,2,4]triazolo[4,3-a]pyrazin-8-amine] as the compound, how does the pIC50 read?
A: The pIC50 was less than 5.30.

Q: How did the pIC50 turn out when `CC1(C)Oc2cc(-c3cn4ncnc4c(Nc4ccc(N5CCOCC5)cc4)n3)cnc2NC1=O` [I33, 2,2-dimethyl-7-(8-((4-morpholinophenyl)amino)-[1,2,4]triazolo[1,5-a]pyrazin-6-yl)-2H-pyrido[3,2-b][1,4]oxazin-3(4H)-one] was run?
A: Its pIC50 is 6.30 to 7.30.

Q: With `Clc1cc(Nc2nc(-c3ccc4cn[nH]c4c3)cn3cnnc23)ccc1N1CCOCC1` [I41, N-(3-chloro-4-morpholinophenyl)-6-(1H-indazol-6-yl)-[1,2,4]triazolo[4,3-a]pyrazin-8-amine] as the compound, how does the pIC50 read?
A: The pIC50 was less than 5.30.

Q: `COc1cc(Nc2nc(-c3cnc4c(c3)OC(C)(C)C(=O)N4)cn3ncnc23)cc(OC)c1OC` [I35, 2,2-dimethyl-7-(8-((3,4,5-trimethoxyphenyl)amino)-[1,2,4]triazolo[1,5-a]pyrazin-6-yl)-2H-pyrido[3,2-b][1,4]oxazin-3(4H)-one] was tested. Which pIC50 did it give?
A: Its pIC50 is less than 5.30.

Q: With `COc1cc(Nc2nc(-c3cnc4c(c3)OCC(=O)N4)cn3ncnc23)ccc1N1CCOCC1` [I30, 7-(8-((3-methoxy-4-morpholinophenyl)amino)-[1,2,4]triazolo[1,5-a]pyrazin-6-yl)-2H-pyrido[3,2-b][1,4]oxazin-3(4H)-one] as the compound, how does the pIC50 read?
A: The pIC50 was 6.30 to 7.30.

Q: With `CN1CCN(c2ccc(Nc3nc(-c4ccc5cn[nH]c5c4)cn4ncnc34)cc2)CC1` [I11, 6-(1H-indazol-6-yl)-N-(4-(4-methylpiperazin-1-yl)phenyl)-[1,2,4]triazolo[1,5-a]pyrazin-8-amine] as the compound, how does the pIC50 read?
A: Its pIC50 is no less than 7.30.

Q: With `Cc1cc(Nc2nc(-c3ccc4cn[nH]c4c3)cn3cnnc23)ccc1N1CCOCC1` [I42, 6-(1H-indazol-6-yl)-N-(3-methyl-4-morpholinophenyl)-[1,2,4]triazolo[4,3-a]pyrazin-8-amine] as the compound, how does the pIC50 read?
A: The pIC50 was less than 5.30.

Q: How did the pIC50 turn out when `O=C1COc2cc(-c3cn4ncnc4c(Nc4ccc5c(c4)OC(F)(F)O5)n3)cnc2N1` [I38, 7-(8-((2,2-difluorobenzo[d][1,3]dioxol-5-yl)amino)-[1,2,4]triazolo[1,5-a]pyrazin-6-yl)-2H-pyrido[3,2-b][1,4]oxazin-3(4H)-one] was run?
A: Its pIC50 is less than 5.30.

Q: `COc1cc(Nc2nc(-c3ccc4cn[nH]c4c3)cn3ncnc23)cc(OC)c1OC` [I4, 6-(1H-indazol-6-yl)-N-(3,4,5-trimethoxyphenyl)-[1,2,4]triazolo[1,5-a]pyrazin-8-amine] was tested. Which pIC50 did it give?
A: Its pIC50 is 6.30 to 7.30.

Q: `c1nc2c(Nc3ccc(N4CC5CC4CN5C4COC4)c(OC4CC4)c3)nc(-c3ccc4cc[nH]c4c3)cn2n1` (centres unmarked) [I80, N-(3-cyclopropoxy-4-(5-(oxetan-3-yl)-2,5-diazabicyclo[2.2.1]heptan-2-yl)phenyl)-6-(1H-indol-6-yl)-[1,2,4]triazolo[1,5-a]pyrazin-8-amine] was tested. Which pIC50 did it give?
A: Its pIC50 is 5.30 to 6.30.

Q: With `c1nc2c(Nc3ccc(N4CCC5(COC5)C4)cc3)nc(-c3ccc4cc[nH]c4c3)cn2n1` [I64, N-(4-(2-oxa-6-azaspiro[3.4]octan-6-yl)phenyl)-6-(1H-indol-6-yl)-[1,2,4]triazolo[1,5-a]pyrazin-8-amine] as the compound, how does the pIC50 read?
A: Its pIC50 is less than 5.30.

Q: `COc1cc(Nc2nc(-c3ccc4[nH]ncc4c3)cn3cnnc23)ccc1N1CCOCC1` [I67, 6-(1H-indazol-5-yl)-N-(3-methoxy-4-morpholinophenyl)-[1,2,4]triazolo[4,3-a]pyrazin-8-amine] was tested. Which pIC50 did it give?
A: The pIC50 was 5.30 to 6.30.

Q: How did the pIC50 turn out when `COc1cc(Nc2nc(-c3ccc4c(C)n[nH]c4c3)cn3cnnc23)ccc1N1CCOCC1` [I46, N-(3-methoxy-4-morpholinophenyl)-6-(3-methyl-1H-indazol-6-yl)-[1,2,4]triazolo[4,3-a]pyrazin-8-amine] was run?
A: The pIC50 was 5.30 to 6.30.

Q: With `c1cc2cc(-c3cn4cnnc4c(Nc4ccc(N5CCOCC5)cc4)n3)ccc2[nH]1` [I66, 6-(1H-indol-5-yl)-N-(4-morpholinophenyl)-[1,2,4]triazolo[4,3-a]pyrazin-8-amine] as the compound, how does the pIC50 read?
A: The pIC50 was less than 5.30.

Q: `COc1cc(Nc2nc(-c3ccc4c(C)c[nH]c4c3)cn3cnnc23)ccc1N1CCOCC1` [I47, N-(3-methoxy-4-morpholinophenyl)-6-(3-methyl-1H-indol-6-yl)-[1,2,4]triazolo[4,3-a]pyrazin-8-amine] was tested. Which pIC50 did it give?
A: Its pIC50 is 5.30 to 6.30.

Q: `CCS(=O)(=O)N1CCN(c2ccc(Nc3nc(-c4ccc5cn[nH]c5c4)cn4ncnc34)cc2)CC1` [I14, N-(4-(4-(ethylsulfonyl)piperazin-1-yl)phenyl)-6-(1H-indazol-6-yl)-[1,2,4]triazolo[1,5-a]pyrazin-8-amine] was tested. Which pIC50 did it give?
A: The pIC50 was no less than 7.30.

Q: How did the pIC50 turn out when `c1cc(N2CCOCC2)ccc1Nc1nc(-c2ccc3[nH]ncc3c2)cn2cnnc12` [I65, 6-(1H-indazol-5-yl)-N-(4-morpholinophenyl)-[1,2,4]triazolo[4,3-a]pyrazin-8-amine] was run?
A: The pIC50 was less than 5.30.

Q: `CC1(C)Oc2cc(-c3cn4ncnc4c(Nc4ccc(N5CCOCC5)cc4)n3)ccc2NC1=O` [I27, 2,2-dimethyl-7-(8-((4-morpholinophenyl)amino)-[1,2,4]triazolo[1,5-a]pyrazin-6-yl)-2H-benzo[b][1,4]oxazin-3(4H)-one] was tested. Which pIC50 did it give?
A: The pIC50 was 6.30 to 7.30.

Q: How did the pIC50 turn out when `c1cc(N2CCOCC2)ncc1Nc1nc(-c2ccc3cn[nH]c3c2)cn2cnnc12` [I43, 6-(1H-indazol-6-yl)-N-(6-morpholinopyridin-3-yl)-[1,2,4]triazolo[4,3-a]pyrazin-8-amine] was run?
A: The pIC50 was less than 5.30.
